# From patent US6013795A, “Alpha-branched fluoroalkylcarbonyl fluorides and their derivatives” (3M Innovative Properties Company, priority 1996, dated 2000)
# Assay: surface tension of aqueous surfactant solutions and critical micelle concentration (K-12 Processor Tensiometer)
# Format: physicochemical
# Conditions: carboxylate salts, deionized water; Table 5
# Source text: Critical Micelle Concentration (CMC): The critical micelle concentration is defined as the concentration at which further surface tension is no longer lowered with increasing levels of surfactant. […] Surface tension is then plotted vs. log concentration and the data points are connected. The resulting curve has a nearly horizontal flat portion at concentrations above the CMC and has a negative steep slope at concentrations below the CMC. The CMC is defined as the lowest surfactant concentration in the horizontal flat portion of the curve.
# (§1) Then the critical micelle concentration (CMC) was determined for each surfactant.
# as §1
Compound,CMC,Surf. Tens. at the CMC
"O=C(O)C(F)(C(F)(F)F)C(F)(F)C(F)(F)C(F)(F)C(F)(F)C(F)(F)C(F)(F)F (centres unmarked) [Example M16, C6 F13 CF(CF3)COO^- H4 N^+]",8000 ppm,17.9 dynes/cm
"O=C(O)C(F)(C(F)(F)F)C(F)(F)C(F)(F)C(F)(F)C(F)(F)C(F)(F)C(F)(F)C(F)(F)F (centres unmarked) [Example M27, C7 F15 CF(CF3)COO^- Li^+]",3500 ppm,24.1 dynes/cm
"O=C(O)C(F)(C(F)(F)F)C(F)(F)C(F)(F)C(F)(F)C(F)(F)C(F)(F)C(F)(F)C(F)(F)F (centres unmarked) [Example M30, C7 F15 CF(CF3)COO^- 1/2 [H3 N^+ C2 H4 NHC2 H4 N^+ H3]]",3000 ppm,16.2 dynes/cm
"O=C(O)C(F)(C(F)(F)F)C(F)(F)C(F)(F)C(F)(F)C(F)(F)C(F)(F)C(F)(F)C(F)(F)F (centres unmarked) [Example M26, C7 F15 CF(CF3)COO^- Na^+]",3000 ppm,19.4 dynes/cm
"O=C(O)C(F)(C(F)(F)F)C(F)(F)C(F)(F)C(F)(F)C(F)(F)C(F)(F)C(F)(F)F (centres unmarked) [Example M22, C6 F13 CF(CF3)COO^- K^+]",10000 ppm,17.5 dynes/cm
"O=C(O)C(F)(C(F)(F)F)C(F)(F)C(F)(F)C(F)(F)C(F)(F)C(F)(F)C(F)(F)C(F)(F)C(F)(F)F (centres unmarked) [Example M17, C8 F17 CF(CF3)COO^- H4 N^+]",2300 ppm,14.7 dynes/cm
"O=C(O)C(F)(C(F)(F)F)C(F)(F)C(F)(F)C(F)(F)C(F)(F)C(F)(F)C(F)(F)F (centres unmarked) [Example M25, C6 F13 CF(CF3)COO^- Na^+]",10000 ppm,19.8 dynes/cm
"O=C(O)C(F)(C(F)(F)F)C(F)(F)C(F)(F)C(F)(F)C(F)(F)C(F)(F)F (centres unmarked) [Example M21, C5 F11 CF(CF3)COO^- K^+]",> 10000 ppm,22.5 dynes/cm
"O=C(O)C(F)(C(F)(F)F)C(F)(F)C(F)(F)C(F)(F)C(F)(F)C(F)(F)F (centres unmarked) [Example M15, C5 F11 CF(CF3)COO^- H4 N^+]",> 10000 ppm,22.1 dynes/cm
"O=C(O)C(F)(C(F)(F)F)C(F)(F)C(F)(F)C(F)(F)C(F)(F)C(F)(F)C(F)(F)C(F)(F)C(F)(F)F (centres unmarked) [Example M24, C8 F17 CF(CF3)COO^- K^+]",3000 ppm,16.4 dynes/cm
"O=C(O)C(F)(C(F)(F)F)C(F)(F)C(F)(F)C(F)(F)C(F)(F)C(F)(F)C(F)(F)C(F)(F)F (centres unmarked) [Example M23, C7 F15 CF(CF3)COO^- K^+]",2500 ppm,15.0 dynes/cm
"O=C(O)C(F)(C(F)(F)F)C(F)(F)C(F)(F)C(F)(F)C(F)(F)C(F)(F)C(F)(F)C(F)(F)C(F)(F)C(F)(F)C(F)(F)F (centres unmarked) [Example M18, C10 F21 CF(CF3)COO^- H4 N^+]",600 ppm,14.8 dynes/cm
"O=C(O)C(F)(C(F)(F)F)C(F)(F)C(F)(F)C(F)(F)C(F)(F)C(F)(F)C(F)(F)C(F)(F)F (centres unmarked) [Example M20, C7 F15 CF(CF3)COO^- H3 N^+ C2 H4 OH]",500 ppm,15.0 dynes/cm

# Same assay, conditions: deionized water; Table 3
Compound,Surf. Tens. at the CMC,solubility remark,CMC
"C[N+](C)(CCCNC(=O)C(F)(C(F)(F)F)C(F)(F)C(F)(F)C(F)(F)C(F)(F)C(F)(F)C(F)(F)C(F)(F)F)CCC(=O)[O-] (centres unmarked) [Example K1, C7 F15 CF(CF3)CONH(CH2)3 N^+ (CH3)2 C2 H4 COO^-]",16.6 dynes/cm,–,–
O=C(NCCC[N+]1([O-])CCOCC1)C(F)(C(F)(F)F)C(F)(F)C(F)(F)C(F)(F)C(F)(F)C(F)(F)C(F)(F)C(F)(F)F (centres unmarked) [Example E9],–,low solub.,–
"C[N+](C)([O-])CCCNC(=O)C(F)(C(F)(F)F)C(F)(F)C(F)(F)C(F)(F)C(F)(F)C(F)(F)C(F)(F)F (centres unmarked) [Example E3, C6 F13 CF(CF3)CONH(CH2)3 N^+ (CH3)2 O^-]",16.6 dynes/cm,–,100 ppm
"C[N+](C)([O-])CCCNC(=O)C(F)(C(F)(F)C(F)(F)C(F)(F)F)C(F)(F)C(F)(F)C(F)(F)C(F)(F)C(F)(F)C(F)(F)C(F)(F)F (centres unmarked) [Example E7, C7 F15 CF(C3 F7)CONH(CH2)3 N^+ (CH3)2 O^-]",–,low solub.,–
O=C(OCCc1cccc[n+]1[O-])C(F)(C(F)(F)F)C(F)(F)C(F)(F)C(F)(F)C(F)(F)C(F)(F)C(F)(F)C(F)(F)F (centres unmarked) [Example E13],15.0 dynes/cm,–,6000 ppm
"C[N+](C)([O-])CCCN(CCO)C(=O)C(F)(C(F)(F)F)C(F)(F)C(F)(F)C(F)(F)C(F)(F)C(F)(F)C(F)(F)C(F)(F)F (centres unmarked) [Example E8, C7 F15 CF(CF3)CON(C2 H4 OH)(CH2)3 N^+ (CH3)2 O^-]",16.6 dynes/cm,–,–
C[N+](C)(CCO)CCCNC(=O)C(F)(C(F)(F)F)C(F)(F)C(F)(F)C(F)(F)C(F)(F)C(F)(F)C(F)(F)C(F)(F)F (centres unmarked) [Example F4],19.0 dynes/cm,–,300 ppm
C[n+]1ccc(C(=O)NCCOC(=O)C(F)(C(F)(F)F)C(F)(F)C(F)(F)C(F)(F)C(F)(F)C(F)(F)C(F)(F)C(F)(F)F)cc1 (centres unmarked) [Example F1],15.0 dynes/cm,–,500 ppm
"C[N+](C)([O-])CCCNC(=O)C(F)(C(F)(F)F)C(F)(F)C(F)(F)C(F)(F)C(F)(F)C(F)(F)C(F)(F)C(F)(F)C(F)(F)C(F)(F)C(F)(F)F (centres unmarked) [Example E5, C10 F21 CF(CF3)CONH(CH2)3 N^+ (CH3)2 O^-]",17.1 dynes/cm,–,500 ppm
"C[N+](C)([O-])CCCNC(=O)C(F)(C(F)(F)F)C(F)(F)C(F)(F)C(F)(F)C(F)(F)C(F)(F)F (centres unmarked) [Example E2, C5 F11 CF(CF3)CONH(CH2)3 N^+ (CH3)2 O^-]",17.5 dynes/cm,–,500 ppm
"CN(C)CCCN(CCCN(C)C)C(=O)C(F)(C(F)(F)F)C(F)(F)C(F)(F)C(F)(F)C(F)(F)C(F)(F)C(F)(F)C(F)(F)F (centres unmarked) [Example F9, C7 F15 CF(CF3)CON[C3 H6 N^+ (CH3)2 H]2 2[^- OOCCH3]]",22.0 dynes/cm,–,1000 ppm
O=C(OCCc1cccc[n+]1[O-])C(F)(C(F)(F)F)C(F)(F)C(F)(F)C(F)(F)C(F)(F)C(F)(F)C(F)(F)F (centres unmarked) [Example E12],18.3 dynes/cm,–,8000 ppm
C[n+]1ccc(C(=O)NCCOC(=O)C(F)(C(F)(F)F)C(F)(F)C(F)(F)C(F)(F)C(F)(F)C(F)(F)C(F)(F)F)cc1 (centres unmarked) [Example F2],15.5 dynes/cm,–,30 ppm
"C[N+](C)([O-])CCCNC(=O)C(F)(C(F)(F)F)C(F)(F)C(F)(F)C(F)(F)C(F)(F)C(F)(F)C(F)(F)C(F)(F)C(F)(F)F (centres unmarked) [Example E4, C8 F17 CF(CF3)CONH(CH2)3 N^+ (CH3)2 O^-]",16.5 dynes/cm,–,20 ppm
"C[N+](C)([O-])CCCNC(=O)C(F)(C(F)(F)F)C(F)(F)C(F)(F)C(F)(F)C(F)(F)C(F)(F)C(F)(F)C(F)(F)F (centres unmarked) [Example E1, C7 F15 CF(CF3)CONH(CH2)3 N^+ (CH3)2 O^-]",16.3 dynes/cm,–,20 ppm
O=C(NCCC[N+]1(CCO)CCOCC1)C(F)(C(F)(F)F)C(F)(F)C(F)(F)C(F)(F)C(F)(F)C(F)(F)C(F)(F)C(F)(F)F (centres unmarked) [Example F5],20.8 dynes/cm,–,1000 ppm
C6 F13 CF(CF3)CON(C3 H6 SO3^-)(CH2)3 N^+ (CH3)2 H [Example K2],20.3 dynes/cm,–,500 ppm
C8 F17 CF(CF3)CO(OCH2 CH2)16 OCH3 [Example J1],22 dynes/cm,–,150 ppm
C[N+](C)(CCCN(CCC[N+](C)(C)CCC(=O)[O-])C(=O)C(F)(C(F)(F)F)C(F)(F)C(F)(F)C(F)(F)C(F)(F)C(F)(F)C(F)(F)C(F)(F)F)CCC(=O)[O-] (centres unmarked) [Example K4],23.6 dynes/cm,–,100 ppm
O=C(NCCOC(=O)C(F)(C(F)(F)F)C(F)(F)C(F)(F)C(F)(F)C(F)(F)C(F)(F)C(F)(F)F)c1cc[n+]([O-])cc1 (centres unmarked) [Example E11],15.5 dynes/cm,–,1000 ppm
O=C([O-])CC[N+]1(CCCNC(=O)C(F)(C(F)(F)F)C(F)(F)C(F)(F)C(F)(F)C(F)(F)C(F)(F)C(F)(F)C(F)(F)F)CCOCC1 (centres unmarked) [Example K3],19.2 dynes/cm,–,1000 ppm
C[N+](C)(CCO)CCCNC(=O)C(F)(C(F)(F)F)C(F)(F)C(F)(F)C(F)(F)C(F)(F)C(F)(F)F (centres unmarked) [Example F3],17.0 dynes/cm,–,1000 ppm
O=C(NCCOC(=O)C(F)(C(F)(F)F)C(F)(F)C(F)(F)C(F)(F)C(F)(F)C(F)(F)C(F)(F)C(F)(F)F)c1cc[n+]([O-])cc1 (centres unmarked) [Example E10],14.5 dynes/cm,–,400 ppm
